According to patent US20250099420A1, “SMALL MOLECULE MODULATORS OF GPR139 COMPLEX” (University of Florida Research Foundation, Incorporated, priority 2022, published 2025):
Read-outs that look alike come from different tables or passages of the source.

Assays:
[1] = biological target: T1, GPR139 (Homo sapiens, UniProt Q6DWJ6); experiment: GPR139 Agonist titration / agonist counterscreen assay (calcium detection, HEK-GPR139 cells); assay type: cell-based; design: expressed in transfected cells; host or cells: HEK Aequorin cells, Maxcyte transient transfection; details: GPR139 Agonist Activity; for EC50: read-out: EC50; for Averaged Max % Response (±St. Dev.): activity relative to known control
T1 sequence (Q6DWJ6 1-353): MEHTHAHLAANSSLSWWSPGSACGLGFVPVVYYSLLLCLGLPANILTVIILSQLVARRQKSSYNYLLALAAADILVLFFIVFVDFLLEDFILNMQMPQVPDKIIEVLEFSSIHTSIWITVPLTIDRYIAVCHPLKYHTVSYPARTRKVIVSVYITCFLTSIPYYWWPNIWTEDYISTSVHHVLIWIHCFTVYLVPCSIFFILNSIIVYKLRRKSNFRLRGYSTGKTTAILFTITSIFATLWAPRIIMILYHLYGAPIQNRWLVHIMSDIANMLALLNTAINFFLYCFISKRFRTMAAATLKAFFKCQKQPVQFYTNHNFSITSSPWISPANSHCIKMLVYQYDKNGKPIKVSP
Method: GPR activity was assessed using a calcium detection assay. […] Negative control samples were treated with DMSO. […] Intracellular calcium was measured using Calcium 5.

[2] = tested on: parental HEK cells; experiment: HEK parental Agonist Counterscreen Assay (non-transfected cells); assay type: cell-based; details: for Averaged Max % Response (±St. Dev.): activity relative to known control
Description: The high control for the agonist counterscreen was Forskolin not acetylcholine.

[3] = HEK Agonist Activity section of Table 4 (parental HEK counterscreen)
[4] = values printed in E-notation without unit
[5] = Homo sapiens, HEK293, HEK Agonist Activity section of Table 4 (parental HEK counterscreen)

Compound | Efficiency Ligand [1] | Hill Slope [1] | Lipophilic Efficiency (logD) [1] | Lipophilic Efficiency (logP) [1] | EC50 ([1]; HEK-GPR139 cells) [nM] | Averaged Max % Response (±St. Dev.) [1] [%] | Lipophilic Efficiency (logD) ([2]; HEK Agonist Activity section) | Lipophilic Efficiency (logP) ([2]; HEK Agonist Activity section) | Lipophilic Efficiency (logD) ([1]; based on logD) | Lipophilic Efficiency (logP) ([1]; based on logP) | Hill Slope ([1]; fitted dose-response curve) | Efficiency Ligand ([1]; ligand efficiency) | EC50 [1, 4] [nM] | EC50 [2, 3] [nM] | Averaged Max % Response (±St. Dev.) ([2]; HEK Agonist Activity section) [%] | EC50 [2, 5] [nM] | also measured
COc1ccc(CSc2nnc(-c3cccnc3)n2N)cc1 [SR-01000284323] | 0.41 | 0.57 | 4.90 | 4.90 | 386 | 94.97 ± 7.83 | 3.34 | 3.34 | – | – | – | – | – | > 14100 | 3.28 ± 6.64 | – | –
CC1CCCCN1C(=O)CN1C(=O)C2(CCc3ccccc3C2)NC1=S (centres unmarked) [SR-01000044433] | 0.33 | 0.97 | 4.10 | 4.10 | 896 | 96.03 ± 12.11 | 2.90 | 2.90 | – | – | – | – | – | – | 12.49 ± 3.39 | > 14300 | –
O=C(Cn1ncc2c1-c1ccccc1OC2)Nc1ccccn1 [SR-01000135048] | – | – | – | – | – | 109.25 ± 4.64 | 3.00 | 3.00 | 4.72 | 4.72 | 1.29 | 0.40 | 266 | – | 12.06 ± 16.35 | > 14100 | –
COc1ccc2c(c1)C[C@H](C(=O)Nc1ccc(-c3cn[nH]c3)cc1OCC1CNC1)NC2.O=C(O)C(F)(F)F.O=C(O)C(F)(F)F.O=C(O)C(F)(F)F [SR-00000006698] | 0.29 | 1.33 | 7.81 | 4.82 | 274 | 88.34 ± 12.18 | 6.10 | 3.11 | – | – | – | – | – | > 14100 | 5.81 ± 4.77 | – | –

The next lines start with results.

Efficiency Ligand [1] | Hill Slope [1] | Lipophilic Efficiency (logD) [1] | Lipophilic Efficiency (logP) [1] | EC50 ([1]; HEK-GPR139 cells) [nM] | Averaged Max % Response (±St. Dev.) [1] [%] | Lipophilic Efficiency (logD) ([2]; HEK Agonist Activity section) | Lipophilic Efficiency (logP) ([2]; HEK Agonist Activity section) | Lipophilic Efficiency (logD) ([1]; based on logD) | Lipophilic Efficiency (logP) ([1]; based on logP) | Hill Slope ([1]; fitted dose-response curve) | Efficiency Ligand ([1]; ligand efficiency) | EC50 [1, 4] [nM] | Compound | EC50 [2, 3] [nM] | Averaged Max % Response (±St. Dev.) ([2]; HEK Agonist Activity section) [%] | EC50 [2, 5] [nM] | also measured
0.36 | 0.43 | 3.09 | 3.09 | 680 | 103.90 ± 24.19 | 1.77 | 1.77 | – | – | – | – | – | O=C(Cn1ncc2c1-c1ccccc1OC2)Nc1ccc(Cl)cc1 [SR-01000098980] | > 14100 | 16.39 ± 16.07 | – | –
– | – | – | – | – | 90.09 ± 14.61 | 1.19 | 1.15 | 3.32 | 3.28 | 1.08 | 0.38 | 103 | Cc1cccc(OCC(=O)NNC(=O)C(C)Oc2ccc(Cl)cc2Cl)c1 (centres unmarked) [SR-01000318010] | > 14100 | 12.20 ± 3.74 | – | –
– | – | – | – | – | 100.05 ± 4.70 | – | – | 4.99 | 4.99 | 0.80 | 0.41 | 43.1 | Cc1ccc(C)c(C(=O)CCC(=O)NNC(=O)c2cc(C)oc2C)c1 [SR-01000069642] | – | – | – | Lipophilic Efficiency (logD) ([2]; HEK Agonist Activity): 2.45; Lipophilic Efficiency (logP) ([2]; HEK Agonist Activity): 2.45; Averaged Max % Response (±St. Dev.) ([2]; HEK Agonist Activity): 8.55 ± 4.45%; EC50 ([2]; Homo sapiens, HEK293, HEK Agonist Activity, parental non-transfected HEK cells): > 14800 nM
– | – | – | – | – | 105.88 ± 16.21 | 4.10 | 2.51 | 6.30 | 4.72 | 0.34 | 0.45 | – | Cc1cc(CC(=O)N/C=C/c2cccc3ccccc23)n[nH]1 [SR-01000080408] | – | 71.97 ± 7.16 | 11900 | Hill Slope ([2]; HEK Agonist Activity section): 1.95
